Measured values: US6545155B2, “Fused heteroaromatic glucokinase activators” (Hoffmann-La Roche Inc., priority 2000, dated 2003)

These compounds were tested on C57BL/6J mice (assay: Glucokinase activator in vivo screen protocol (blood glucose after oral dosing)). Conditions: administered orally, 50 mg/kg, C57BL/6J mice fasted two hours, blood glucose vs vehicle over six hours post dose.
Protocol: (Glucokinase Activator in Vivo Screen Protocol
C57BL/6J mice are orally dosed via gavage with Glucokinase (GK) activator at 50 mg/kg body weight following a two hour fasting period. Blood glucose determinations are made five times during the six hour post-dose study period.
Mice (n=6) are weighed and fasted for a two hour period prior to oral treatment. GK activators are formulated at 6.76 mg/ml in Gelucire vehicle (Ethanol:Gelucire44/14:PEG400q.s. 4:66:30 v/w/v. Mice are dosed orally with 7.5 μL formulation per gram of body weight to equal a 50 mg/kg dose. Immediately prior to dosing, a pre dose (time zero) blood glucose reading is acquired by snipping off a small portion of the animals tail (˜1 mm) and collecting 15 μL blood into a heparinized capillary tube for analysis. Following GK activator administration, additional blood glucose readings are taken at 1, 2, 4, and 6 hours post dose from the same tail wound. Results are interpreted by comparing the mean blood glucose values of six vehicle treated mice with six GK activator treated mice over the six hour study duration.

Row | Compound | glucokinase activator in vivo activity
1 | CS(=O)(=O)c1ccc(C(CC2CCCC2)C(=O)Nc2ccc3ccccc3n2)cc1Cl (stereo not drawn) [Example 22, 2-(3-Chloro-4-methanesulfonyl-phenyl)-3-cyclopentyl-N-quinolin-2-yl-propionamide] | excellent glucokinase activator in vivo activity
2 | CS(=O)(=O)c1ccc([C@@H](CC2CCCC2)C(=O)Nc2nc3ccccc3s2)cc1Cl [Example 19, N-Benzothiazol-2-yl-2(R)-(3-chloro-4-methanesulfonyl-phenyl)-3-cyclopentyl-propionamide] | excellent glucokinase activator in vivo activity
3 | CS(=O)(=O)c1ccc(C(CC2CCCC2)C(=O)Nc2nc3ccccc3[nH]2)cc1Cl (stereo not drawn) [Example 20, N-(1H-Benzoimidazol-2-yl)-2-(3-chloro-4-methanesulfonyl-phenyl)-3-cyclopentyl-propionamide] | excellent glucokinase activator in vivo activity
